Laboratory results published in patent US11753370B2, “Methods of making deuterium-enriched N-acetylcysteine amide (d-NACA) and (2R, 2R′)-3,3′-disulfanediyl bis(2-acetamidopropanamide) (diNACA) and using d-NACA and diNACA to treat diseases involving oxidative stress” (Nacuity Pharmaceuticals, Inc., priority 2017, dated 2023).

Assay: Plasma half-life
Type: in vivo
Text: Metabolism. An advantage of diNACA over N-acetylsysteine amide (NACA) is the reduction in metabolism rate compared to NACA. DiNACA has a longer plasma half-life than NACA. The major metabolites of diNACA are NACA and N-acetylcysteine (NAC) afforded by cleavage of the sulfur bond of diNACA to yield NACA and NAC. Dosing the patient with diNACA affords high greater bioavailability in tissues like the retina and aqueous humore compared to dosing with NACA, presumably due the higher lipophilicity of diNACA compared to NACA and the resulting in vivo cleavage to two NACA-like molecules, thereby effectively increasing the half-life of NACA in the body.
Metabolism. Deuterium-inhibition of NACA metabolism. An advantage of NACA-d3 is the reduction in metabolism rate compared to the non-deuterated NACA. Non-deuterated NACA has a plasma half-life of approximately 2 hours in fasting subjects and approximately 6 hours in fed subjects. The major metabolite of NACA is N-acetylcysteine (NAC) afforded by deamidation of the primary amide functional group of NACA by tissue (e.g., plasma or other tissue) amidase. Another metabolite of NACA is cysteine afforded by (a) deamidation of the primary amide functional group of NACA by tissue (e.g., plasma or other tissue) amidase and (b) de-acetylation of the secondary amide functional group of NACA by tissue (e.g., plasma or other tissue) amidase. Replacement of the acetyl methyl group hydrogen atoms with deuterium atoms slows down the action of tissue amidases on both (primary and secondary) amide functional groups of NACA-d3, thereby prolonging its residence time in the body, i.e., increasing the half-life in the body.

| plasma half-life compared to NACA (comparison with NACA) | plasma half-life (fasting subjects) | plasma half-life (fed subjects) | Compound |
| --- | --- | --- | --- |
| longer | – | – | CC(=O)N[C@@H](CSSC[C@H](NC(C)=O)C(N)=O)C(N)=O [DiNACA, (2R,2R′)-3,3′-disulfanediyl bis(2-acetamidopropanamide)] |
| – | approximately 2 hours | approximately 6 hours | N-acetylcysteine amide [NACA] |
